Laboratory results published in patent US20060235222A1, “Indole-derivative modulators of steroid hormone nuclear receptors” (ELI LILLY AND COMPANY, priority 2003, published 2006).

Assays:
human MR = molecular target: T1, human MR (Homo sapiens, UniProt P08235); experiment: Mineralocorticoid Receptor Binding Assay (Method 1), [3H]-aldosterone competition; settings: 0.5 nM [3H]-aldosterone, human MR expressed in Sf9 cells
T1 construct: The full length human MR gene is cloned from a human kidney or human brain cDNA library; inferred from own knowledge of the pAcHLT vector (N); made in house; host or cells: Sf9 insect cells (baculovirus)
T1 sequence (P08235 1-984): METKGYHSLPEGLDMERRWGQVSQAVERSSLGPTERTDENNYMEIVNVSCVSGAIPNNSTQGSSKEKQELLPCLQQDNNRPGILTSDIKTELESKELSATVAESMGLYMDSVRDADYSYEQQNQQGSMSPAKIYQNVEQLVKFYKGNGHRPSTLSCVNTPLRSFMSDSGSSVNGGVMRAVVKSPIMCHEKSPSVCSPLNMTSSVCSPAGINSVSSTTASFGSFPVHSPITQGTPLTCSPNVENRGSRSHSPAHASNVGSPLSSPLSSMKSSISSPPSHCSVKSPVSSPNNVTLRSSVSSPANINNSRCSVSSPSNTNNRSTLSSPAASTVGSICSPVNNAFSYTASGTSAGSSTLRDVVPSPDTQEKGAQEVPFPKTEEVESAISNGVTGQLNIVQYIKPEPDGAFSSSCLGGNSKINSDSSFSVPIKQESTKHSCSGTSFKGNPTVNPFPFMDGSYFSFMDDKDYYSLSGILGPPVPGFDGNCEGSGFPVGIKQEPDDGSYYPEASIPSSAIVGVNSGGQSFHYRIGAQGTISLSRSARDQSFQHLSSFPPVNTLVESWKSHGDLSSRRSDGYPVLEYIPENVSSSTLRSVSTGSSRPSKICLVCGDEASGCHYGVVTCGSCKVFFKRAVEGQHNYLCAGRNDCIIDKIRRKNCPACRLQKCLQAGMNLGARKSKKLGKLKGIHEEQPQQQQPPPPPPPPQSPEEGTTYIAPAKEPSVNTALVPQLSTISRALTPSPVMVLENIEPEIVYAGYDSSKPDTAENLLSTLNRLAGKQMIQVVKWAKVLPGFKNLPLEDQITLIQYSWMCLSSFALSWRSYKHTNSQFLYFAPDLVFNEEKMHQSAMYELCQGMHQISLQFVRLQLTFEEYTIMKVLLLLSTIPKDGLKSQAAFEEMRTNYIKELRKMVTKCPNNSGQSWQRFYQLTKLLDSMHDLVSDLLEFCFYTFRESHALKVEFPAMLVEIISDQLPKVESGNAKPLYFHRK
Experimental: Mineralocorticoid Receptor Binding Assay (Method 1):
The full length human MR gene is cloned from a human kidney or human brain cDNA library. […] The PCR reaction is performed in a final volume of 50 μl containing about 1 μl of a 50× stock solution of polymerase; about 1 μl of a 50× stock solution of dNTP; about 5 μl of an appropriate PCR buffer; about 1 μl of each primer; about 5 μl of a H. kidney or H. brain cDNA library; and about 36 μl of water. The reaction is allowed to denature for about 30 seconds at 95 degrees Celsius, anneal for about 30 seconds at 55 degrees Celsius, and extend for about 5 minutes at 72 degrees Celsius, the sequence being repeated for a total of about 35 cycles. […] To extract the cDNA product from the agarose gel, the QIAEX II Gel Extraction protocol (QIAGEN, Inc.) is employed according to the manufacturer's instructions. Following extraction, the MR cDNA is cloned into an appropriate cloning vector (Zero Blunt TOPO PCR Cloning Kit (Invitrogen, Inc.) and a pAcHLT-baculovirus transfer vector (B.D./Pharminogen), then expressed in SF9 insect cells, essentially according to manufacturer's instructions. Sf9 cells are grown at a scale where gram quantity cell pellets are obtained for subsequent use in the MR binding assay. Harvested cell pellets are lysed by repeated freeze-thaw cycles (about 4) in a suitable lysis buffer then centrifuged at about 1×10^3 G (with the supernatant being saved for future assays).
MR binding assays are performed in a final total volume of about 250 μl containing about 20-25 μg of protein and 0.5 nM of [^3H]-aldosterone plus varying concentrations of test compound or vehicle. The assay binding buffer consists of 30 mM sodium molybdate, 30 mM of TRIS-HCl, 5 mM sodium phosphate, 5 mM sodium pyrophosphate, and about 10% glycerol, pH=7.5.
Incubations are carried out at 4 degrees Celsius with shaking for about 16 hours. 200 μl aliquots of each incubation are filtered onto Millipore HA 0.45 micron 96-well filter plates, pre-moistened with cold 30 mM TRIS-HCl. The filter plates are suctioned dry with vacuum and immediately washed 3× with cold 30 mM TRIS-HCl. The plates are then punched out and the amount of receptor-ligand complex is determined by liquid scintillation counting using 4 ml of Ready Protein Plus™ liquid scintillation cocktail.

glucocorticoid receptor = molecular target: T2, glucocorticoid receptor (Homo sapiens, UniProt P04150); experiment: Glucocorticoid Receptor Binding Assay (Method 1), [3H]-dexamethasone competition, A549 cell extract; settings: 1.86 nM [3H]-dexamethasone, read-out: GR Ki (nM) Method 1
T2 construct: containing 50-200 ug of A549 cell extract and 1.86 nM; host or cells: A549 human lung epithelial cells
T2 sequence (P04150 1-777): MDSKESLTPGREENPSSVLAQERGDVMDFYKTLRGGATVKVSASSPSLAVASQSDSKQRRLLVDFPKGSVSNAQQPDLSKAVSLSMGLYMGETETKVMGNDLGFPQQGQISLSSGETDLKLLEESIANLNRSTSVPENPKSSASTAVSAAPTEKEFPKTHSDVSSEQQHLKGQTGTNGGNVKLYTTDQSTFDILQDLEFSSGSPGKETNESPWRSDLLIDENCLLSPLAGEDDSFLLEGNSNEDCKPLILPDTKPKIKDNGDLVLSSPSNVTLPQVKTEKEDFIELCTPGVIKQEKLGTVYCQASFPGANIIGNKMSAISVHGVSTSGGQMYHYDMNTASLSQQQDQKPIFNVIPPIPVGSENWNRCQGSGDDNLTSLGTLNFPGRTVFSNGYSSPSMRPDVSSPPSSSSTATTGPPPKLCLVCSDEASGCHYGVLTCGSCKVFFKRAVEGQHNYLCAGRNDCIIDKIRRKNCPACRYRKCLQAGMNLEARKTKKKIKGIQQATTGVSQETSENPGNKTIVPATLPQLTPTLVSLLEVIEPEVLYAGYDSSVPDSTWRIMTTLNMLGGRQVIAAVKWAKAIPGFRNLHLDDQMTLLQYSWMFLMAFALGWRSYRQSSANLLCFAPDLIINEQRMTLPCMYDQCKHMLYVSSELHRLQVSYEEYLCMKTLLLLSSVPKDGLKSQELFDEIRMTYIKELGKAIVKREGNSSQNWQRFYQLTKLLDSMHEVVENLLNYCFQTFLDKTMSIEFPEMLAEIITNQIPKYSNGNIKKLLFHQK
Experimental: Glucocorticoid Receptor Binding Assay (Method 1):
A549 human lung epithelial cells (ATCC) are grown at a scale where gram quantity cell pellets are obtained. Harvested cell pellets are washed twice in cold phosphate buffered saline, centrifuged, and resuspended in cold assay binding buffer. The assay binding buffer consists of 10% glycerol, 50 mM Tris-HCl (pH7.2), 75 mM sodium chloride, 1.5 mM magnesium chloride, 1.5 mM EDTA, and 10 mM sodium molybdate. Cell suspensions were lysed via sonication, centrifuged, and the “extract” supernatant is snap frozen and stored at −80 C until needed.
Incubations are carried out at 4 degrees Celsius for 16 hours. After incubation, 70 ul of 3× dextran-coated charcoal solution is added to each reaction, mixed, and incubated for 8 minutes at RT. 3×-dextran-coated charcoal solution consists of 250 ml assay binding buffer, 3.75 g Norit A charcoal (Sigma), and 1.25 g dextran T-70 (Amersham). Charcoal/unbound radioligand complexes are removed by centrifugation of the plate and 140 ul of supernatant from each well is transferred to another 96 well Optiplate (Packard Instruments). 200 ul of Microscint-20 scinillant (Packard Instruments) is added to each well and amount of receptor bound radioligand is determined using Packard Instruments TopCount instrument.

Row | SMILES | Ki (human MR) | Ki (glucocorticoid receptor)
1 | CCC(CC)(c1cc2cc(OC)ccc2o1)c1c[nH]c2c(NS(C)(=O)=O)cccc12 [Example 29, N-{3-[1-Ethyl-1-(5-methoxy-benzofuran-2-yl)-propyl]-1H-indol-7-yl}-methanesulfonamide] | < 500 nM | < 1000 nM
2 | Cc1ccc(C(C)(C)c2c[nH]c3c(N)cccc23)cc1 [Example 41, 3-(1-Methyl-1-p-tolyl-ethyl)-1H-indol-7-ylamine] | < 1000 nM | < 10000 nM
3 | O=C(O)CCn1cc(C(c2ccccc2)(c2ccccc2)c2ccccc2)c2ccccc21 [Example 52, 3-(3-Trityl-indol-1-yl)-propionic acid] | < 10000 nM | < 10000 nM
4 | CCC(CC)(c1ccccc1C)c1c[nH]c2c(NS(C)(=O)=O)cccc12 [Example 67, N-[3-(1-Ethyl-1-o-tolyl-propyl)-1H-indol-7-yl]-methanesulfonamide] | < 500 nM | < 500 nM
5 | CCC(CC)(c1cccc(F)c1)c1c[nH]c2c(NS(C)(=O)=O)cccc12 [Example 72, N-{3-[1′-Ethyl-1-(3-fluoro-phenyl)-propyl]-1H-indol-7-yl}-methanesulfonamide] | < 500 nM | < 500 nM
6 | CCC(CC)(c1cccs1)c1c[nH]c2c(NS(C)(=O)=O)cccc12 [Example 15, N-[3-(1-Ethyl-1-thiophen-2-yl-propyl)-1H-indol-7-yl]-methanesulfonamide] | < 500 nM | < 500 nM
7 | Cc1cccc2c(C3(c4ccc(F)cc4)CCCCC3)c[nH]c12 [Example 32, 3-[1-(4-Fluoro-phenyl)-cyclohexyl]-7-methyl-1H-indole] | < 500 nM | < 10000 nM
8 | CCC(CC)(c1cc2ccccc2o1)c1c[nH]c2c(NS(C)(=O)=O)cccc12 [Example 2, N-[3-(1-Benzofuran-2-yl-1-ethyl-propyl)-1H-indol-7-yl]-methanesulfonamide] | < 500 nM | < 500 nM
9 | O=C(O)Cn1cc(C(c2ccccc2)(c2ccccc2)c2ccccc2)c2ccccc21 [Example 51, (3-Trityl-indol-1-yl)-acetic acid] | < 1000 nM | < 10000 nM
10 | CCC(CC)(c1ccc(F)c(F)c1)c1c[nH]c2c(NS(C)(=O)=O)cccc12 [Example 64, N-{3-[1-(3,4-Difluoro-phenyl)-1-ethyl-propyl]-1H-indol-7-yl}-methanesulfonamide] | < 500 nM | < 500 nM
11 | CCC(CC)(c1ccc(C)cc1C)c1c[nH]c2c(NS(C)(=O)=O)cccc12 [Example 60, N-{3-[1-(2,4-Dimethyl-phenyl)-1-ethyl-propyl]-1H-indol-7-yl}-methanesulfonamide] | < 500 nM | < 500 nM
12 | CCCC(C)(c1ccccc1)c1c[nH]c2c(C)cccc12 (stereo not drawn) [Example 37, 7-Methyl-3-(1-methyl-1-phenyl-butyl)-1H-indole] | < 500 nM | < 500 nM
13 | CCC(CC)(c1ccc(F)cc1)c1c[nH]c2c([N+](=O)[O-])cccc12 [Example 75, 3-[1-Ethyl-1-(4-fluoro-phenyl)-propyl]-7-nitro-1H-indole] | < 500 nM | < 500 nM
14 | CCCCC(C)(c1ccc(OC)cc1)c1c[nH]c2c(C)cccc12 (stereo not drawn) [Example 23, 3-[1-(4-Methoxy-phenyl)-1-methyl-pentyl]-7-methyl-1H-indole] | < 500 nM | < 500 nM
15 | CCCC(CCC)(c1ccc(OC)cc1)c1c[nH]c2c(NS(C)(=O)=O)cccc12 [Example 69, N-{3-[1-(4-Methoxy-phenyl)-1-propyl-butyl]-1H-indol-7-yl}-methanesulfonamide] | < 500 nM | < 500 nM
16 | CCC(CC)(c1cc2cc(Cl)ccc2o1)c1c[nH]c2c(NS(C)(=O)=O)cccc12 [Example 11, N-{3-[1-(5-Chloro-benzofuran-2-yl)-1-ethyl-propyl]-1H-indol-7-yl}-methanesulfonamide] | < 500 nM | < 10000 nM
17 | CCCC(C)(c1cccc(OC)c1)c1c[nH]c2c(N)cccc12 (stereo not drawn) [Example 38, 3-[1-(3-Methoxy-phenyl)-1-methyl-butyl]-1H-indol-7-ylamine] | < 500 nM | < 1000 nM
18 | CCC(CC)(c1ccc(C)c(C)c1)c1c[nH]c2c(NS(C)(=O)=O)cccc12 [Example 58, N-{3-[1-(3,4-Dimethyl-phenyl)-1-ethyl-propyl]-1H-indol-7-yl}-methanesulfonamide] | < 500 nM | < 500 nM
19 | CCc1cccc2c(C(C)(c3ccccc3)c3ccc(OC)cc3)c[nH]c12 (stereo not drawn) [Example 25] | < 500 nM | < 500 nM
20 | CS(=O)(=O)Nc1cccc2c(C3(c4ccccc4)CCCCC3)c[nH]c12 [Example 16, N-[3-(1-Phenylcyclohexyl)-1H-indol-7-yl]-methanesulfonamide] | < 500 nM | < 1000 nM
21 | COc1ccc(C(C)(c2ccccc2)c2c[nH]c3c(C)cccc23)cc1 (stereo not drawn) [Example 28, 3-[1-(4-Methoxy-phenyl)-1-phenyl-ethyl]-7-methyl-1H-indole] | < 500 nM | < 1000 nM
